Source: patent US20250320496A1, “MODULATION OF ABCB11 GENE TRANSCRIPTION USING ANTISENSE OLIGONUCLEOTIDES TARGETING REGULATORY RNAS” (CAMP4 Therapeutics Corporation, priority 2022, published 2025)
Strand notation (5' to 3'): a small letter for the sugar, then the base; units joined by * are phosphorothioate-linked, units joined directly phosphodiester-linked; [ ] holds rarer units or linkages, { } end groups; capitals alone tell only the bases. e = 2'-O-(2-methoxyethyl) (MOE); l = locked nucleic acid (LNA); [5mC] = 5-methylcytosine; d = 2'-deoxy (DNA)

Test system: human ABCB11 mRNA
Assay: ASO treatment of primary human hepatocytes (PHH), ABCB11 mRNA by RT-qPCR normalized to B2M
Format: cell-based
Details: for ABCB11 mRNA FC (5 μM ASO vs. UNT) / ABCB11 FC mRNA (5 μM ASO vs. untreated): primary human hepatocytes; for ABCB11 mRNA FC (5 μM ASO vs. UNT): normalized to untreated PHHs (UNT); for ABCB11 FC mRNA (5 μM ASO vs. untreated): 5 μM ASO with PO-modifications, normalized to untreated hepatocytes
Experimental: Primary human hepatocytes (PHH) were thawed using Lonza Human Cryopreserved Hepatocyte Thawing Medium and plated in 96-well collagen-coated plates (5.5-6.0×10^4 cells per well). Four hours later, the media was replaced with sterile-filtered QualGro™ Hepatocyte Culture Medium (BioIVT) containing antibiotic supplement, 0.3 mg/ml Matrigel® matrix (Corning®), and ASO at the desired concentration (e.g., 1.25 μM, 2.5 μM, 5 μM, or 10 μM). After 72 hrs., cells were harvested by aspirating media, washing once with phosphate-buffered saline (PBS), and lysed with 150 μl of Buffer RLT lysis buffer (Qiagen®). Plates were frozen at-80° C. during cell lysis. After thawing, total RNA was isolated using the Qiagen RNEasy kit as instructed by manufacturer. cDNA (random-primed) was synthesized from 10 μl of RNA using the LifeTech High Capacity cDNA Reverse Transcription kit. 2 μl of cDNA was used for reverse transcription-quantitative PCR (RT-qPCR) analyses using standard Taqman” reagents from Applied Biosystems™ to measure ABCB11 and CYP7A1 gene expression. Gene expression data was normalized to the housekeeper gene, beta-2-microglobulin (B2M).
To assess the ability of ASOs targeting ABCB11 regRNAs to modulate the expression of human ABCB11, 195 ASOs targeting the human ABCB11 regRNAs were synthesized. These initial ASOs were screened in PHHs at 5 μM to determine their efficacy in increasing human ABCB11 mRNA using quantitative PCR. This initial screen identified 10 ASOs that induced increased expression of ABCB11 mRNA by more than 1.5-fold (as compared to untreated PHHs).

Substance	ABCB11 mRNA FC (5 μM ASO vs. UNT) [fold change]	further results
CO-4040 (antisense eG*eT*eT*eT*e[5mC]*e[5mC]*e[5mC]*eA*eA*eG*e[5mC]*eA*e[5mC]*eA*e[5mC]*eT*e[5mC]*eT*eG*eT)	0.921	
CO-12748 (antisense eG*eTeGeAeGeGe[5mC]*eA*eT*e[5mC]*eA*eG*eG*eTeAeAeGeTeT*e[5mC])		ABCB11 FC mRNA (5 μM ASO vs. untreated): 0.91 fold change
CO-6989 (antisense eT*eG*lG*eA*lT*eG*lT*eA*lG*eA*lT*eG*lA*eA*lT*eG*lG*e[5mC]*eA*eA)	1.469	
CO-7093 (eA*e[5mC]*l[5mC]*e[5mC]*e[5mC]*l[5mC]*e[5mC]*eT*l[5mC]*eA*e[5mC]*l[5mC]*eT*eT*lG*eG*eT*lT*e[5mC]*e[5mC]; antisense)	1.269	
CO-7028 (antisense eA*e[5mC]*e[5mC]*eG*eA*e[5mC]*eA*eG*eT*eG*eA*eG*e[5mC]*eT*eT*eA*eT*e[5mC]*eT*eG)	1.49	
CO-6670 (antisense eT*eA*eG*eT*eT*eT*eA*eG*eT*eT*eG*eA*e[5mC]*eT*eG*e[5mC]*eA*eG*eA*eG)	1.157	
CO-6994 (antisense eT*eG*eG*eA*lT*eG*eT*eA*eG*lA*eT*eG*eA*eA*lT*eG*eG*e[5mC]*eA*eA)	1.131	
CO-4493 (antisense eA*eT*eG*eG*eT*eG*eA*eG*eA*eG*eT*eG*eT*eG*eG*eT*eT*e[5mC]*eA*eA)	1.178	
CO-7026 (antisense eA*e[5mC]*eA*eG*eT*eG*eA*eG*e[5mC]*eT*eT*eA*eT*e[5mC]*eT*eG*eG*eA*eA*eA)	1.158	
CO-7100 (eA*eT*e[5mC]*eT*eG*dG*dA*dA*eA*dA*dT*dA*dA*eT*dG*d[5mC]*d[5mC]*eT*eT*eT*e[5mC]*eT; antisense)	1.406	
CO-3994 (antisense e[5mC]*e[5mC]*e[5mC]*eA*e[5mC]*eT*e[5mC]*eT*eA*eG*eA*eT*eT*eG*e[5mC]*eA*eA*eG*e[5mC]*e[5mC])	1.988	
CO-3998: ASO targeting the paRNA regRNA RR63 (antisense eA*e[5mC]*e[5mC]*e[5mC]*e[5mC]*e[5mC]*e[5mC]*eT*e[5mC]*eA*e[5mC]*e[5mC]*eT*eT*eG*eGeT*eT*e[5mC]*e[5mC])	1.319	upregulation of ABCB11 mRNA (PHHs, Day 3, normalized to untreated PHHs): approximately 1.5 fold
CO-4025 (antisense eA*e[5mC]*eG*e[5mC]*eT*eA*e[5mC]*eA*eA*eT*eA*e[5mC]*eT*eT*eG*eG*eA*eT*eA*eG)	0.832	
CO-7066 (eT*e[5mC]*eT*eG*eG*lA*eA*eA*eA*eT*lA*eA*eT*eG*e[5mC]*l[5mC]*eT*eT*eT*e[5mC]; antisense)	1.2	
CO-7161 (antisense eG*eA*eT*eG*eT*eG*eG*eA*eG*eG*eT*eG*eG*eA*eG*e[5mC]*eA*eA*eA*e[5mC])	1.324	
CO-7099 (eA*eT*e[5mC]*eT*eG*eG*eA*eA*eA*eA*eT*eA*eA*eT*eG*e[5mC]*e[5mC]*eT*eT*eT*e[5mC]*eT; antisense)	0.882	
CO-7097 (eA*e[5mC]*e[5mC]*e[5mC]*l[5mC]*e[5mC]*e[5mC]*eT*e[5mC]*lA*e[5mC]*e[5mC]*eT*eT*lG*eG*eT*eT*e[5mC]*e[5mC]; antisense)	1.028	
CO-7068 (e[5mC]*eA*eT*eT*eT*lA*dG*dA*lG*dA*d[5mC]*lA*dA*dA*lG*eA*eA*eT*e[5mC]*eG; antisense)	1.077	
CO-3996 (antisense eT*eT*eG*eT*e[5mC]*eT*e[5mC]*eT*eG*eG*eT*eT*eG*eAeA*eG*e[5mC]*e[5mC]*eT*e[5mC])	2.097	
CO-4011 (antisense eT*e[5mC]*e[5mC]*eA*eA*e[5mC]*eA*e[5mC]*e[5mC]*eG*eT*eA*e[5mC]*eT*e[5mC]*eA*eT*eT*eT*e[5mC])	1.184	
CO-7111 (TACATTTAGAGACAAAGAATCGCT; fully MOE, PS/PO backbone, 5-methylcytosine; listed as RNA; modified_base 1..24: mod_base = OTHER; note = Phosphorothioate linkage; note = 2'-O-(2-methoxyethyl) ribonucleotide; modified_base 3: mod_base = OTHER; note = 5-methyl cytidine; modified_base 13: mod_base)	1.027	

Substance	ABCB11 mRNA FC (5 μM ASO vs. UNT) [fold change]	further results
CO-11203 (antisense eT*eG*eT*eTeT*eT*eG*e[5mC]eT*eT*eG*eGeT*e[5mC]*eA*eAeG*eA*eG*eG)		ABCB11 FC mRNA (5 μM ASO vs. untreated): 1.38 fold change
CO-7101 (eA*eT*e[5mC]*eT*eG*lG*dA*dA*lA*dA*dT*dA*dA*lT*dG*d[5mC]*l[5mC]*eT*eT*eT*e[5mC]*eT; antisense)	1.165	
CO-6997 (antisense eG*eT*eG*eA*lG*dG*d[5mC]*dA*lT*d[5mC]*dA*dG*lG*dT*dA*eA*lG*eT*eT*e[5mC])	1.058	
CO-12756 (antisense eG*eTeG*eAeG*eGe[5mC]*eAeT*e[5mC]eA*eGeG*eTeA*eAeG*eTeT*e[5mC])		ABCB11 FC mRNA (5 μM ASO vs. untreated): 1.33 fold change
CO-6981 (antisense eA*e[5mC]*eA*eG*eA*eA*eG*eT*eG*eA*eG*eG*e[5mC]*eA*eT*e[5mC]*eA*eG*eG*eT)	1.164	
CO-3999 (antisense eG*eG*e[5mC]*eA*eA*e[5mC]*e[5mC]*eT*e[5mC]*eG*eT*e[5mC]*e[5mC]*e[5mC]*e[5mC]*eT*e[5mC]*eA*e[5mC]*eT)	1.076	
CO-7150: derivative ASO with additional chemical modifications based on parent ASO CO-4517 (antisense e[5mC]*e[5mC]*eT*eT*eA*dG*dG*dA*eG*dG*dA*dT*dT*eA*dT*dT*dT*eA*eA*e[5mC]*e[5mC]*eT)	1.505	
CO-4519 (antisense eA*eG*eA*e[5mC]*eT*eG*eG*e[5mC]*eA*eT*eGeT*eG*eG*e[5mC]*eT*eT*e[5mC]*eA*e[5mC])	1.061	
CO-11231 (antisense eG*eT*lGeG*eA*lGe[5mC]*eA*lAeA*e[5mC]*lTeA*eG*lGe[5mC]*eA*l[5mC]eT*eG)		ABCB11 FC mRNA (5 μM ASO vs. untreated): 1.85 fold change
CO-7184: derivative ASO with additional chemical modifications based on parent ASO CO-4529 (antisense eG*eT*eG*eG*lA*eG*e[5mC]*eA*eA*lA*e[5mC]*eT*eA*eG*lG*e[5mC]*eA*e[5mC]*eT*eG)	1.582	
CO-4517: parent ASO targeting a human ABCB11 regRNA, chemically modified to CO-7141 etc. (antisense e[5mC]*eT*eT*eA*eG*eG*eA*eG*eG*eA*eT*eT*eA*eT*eT*eT*eA*eA*e[5mC]*e[5mC])	0.914	
CO-4061 (antisense eA*eT*eT*e[5mC]*eA*eT*eT*eG*e[5mC]*eT*eG*eA*eA*eG*eG*e[5mC]*eT*eG*eG*eA)	1.233	
CO-7167 (antisense eG*eG*e[5mC]*eG*eT*eT*eA*eT*eT*eA*eA*eT*eT*e[5mC]*eT*eA*e[5mC]*eA*eG*eA)	1.403	
CO-7198 (eG*eG*eT*eG*eG*lA*dG*d[5mC]*lA*dA*dA*d[5mC]*dT*lA*dG*dG*l[5mC]*eA*e[5mC]*eT*eG*eA; antisense)	1.075	
CO-7168 (antisense eT*eG*eG*e[5mC]*eG*dT*dT*dA*dT*dT*dA*dA*dT*dT*d[5mC]*eT*eA*e[5mC]*eA*eG)	1.301	
CO-7002 (antisense eG*eT*eG*lA*eG*eG*e[5mC]*lA*eT*e[5mC]*eA*lG*eG*eT*eA*lA*eG*eT*eT*e[5mC])	1.367	
CO-4502 (antisense eA*eA*eA*eT*eGeT*eT*eG*eG*e[5mC]*e[5mC]e[5mC]*eT*eT*eG*eA*eG*eG*eA*eG)	1.142	
CO-4481 (antisense e[5mC]*eA*eT*e[5mC]*eT*e[5mC]*eT*eG*eT*eG*eA*eA*eT*e[5mC]*eG*e[5mC]*eT*eA*eG*eT)	1.18	
CO-7035 (antisense e[5mC]*eA*eT*eT*eT*dA*dG*dA*dG*dA*d[5mC]*dA*dA*dA*dG*eA*eA*eT*e[5mC]*eG)	1.047	
CO-7061 (eT*e[5mC]*eT*lG*eG*lA*eA*lA*eA*lT*eA*lA*eT*lG*e[5mC]*l[5mC]*eT*lT*eT*e[5mC]; antisense)	1.261	
